In patent EP0178503A1, “Butenyl derivatives, process for their preparation and medicines containing them” (LUDWIG HEUMANN & CO GMBH, priority 1984, dated 1986):

Target: T1, Histamin-H2-Rezeptoren (Cavia porcellus, UniProt P47747)
T1 construct: Kontraktionsfrequenz des isolierten rechten Atriums des Meerschweinchens; from tissue; host or cells: isolated guinea pig (right) atrium
Assay: pA2 determination in vitro on guinea pig atrium (method of Ariens)
Assay type: biochemical, Meerschweinchen
Settings: Meerschweinchenvorhof, H2-antagonistic activity, Molec. Pharmac., Band 1 (1964)
Excerpt: Die pharmakologische Aktivität dieser Verbindungen kann nach einer modifizierten Methode gemäß der DE OS 2734070 beim perfundierten Rattenmagen gezeigt werden oder durch die Ermittlung der pA2-Werte in vitro am Meerschweinchenvorhof (vergleiche Ariens, Molec. Pharmac., Band 1, Academic Press, New York, 1964) nachgewiesen werden.

T1 sequence (P47747 whole entry): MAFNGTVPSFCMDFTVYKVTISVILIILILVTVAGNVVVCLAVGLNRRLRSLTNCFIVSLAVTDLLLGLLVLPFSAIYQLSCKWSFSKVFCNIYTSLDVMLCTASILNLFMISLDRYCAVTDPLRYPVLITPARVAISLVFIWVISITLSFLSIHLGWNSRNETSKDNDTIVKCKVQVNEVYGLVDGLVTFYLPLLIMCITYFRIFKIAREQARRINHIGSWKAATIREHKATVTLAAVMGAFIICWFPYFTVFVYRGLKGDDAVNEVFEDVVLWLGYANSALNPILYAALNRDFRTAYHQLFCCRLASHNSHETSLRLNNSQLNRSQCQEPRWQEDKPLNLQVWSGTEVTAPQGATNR

Kb: 31.6 nM
Compound: CNC(=C[N+](=O)[O-])NCC=CCOc1cccc(CN2CCCCC2)c1 [Beispiel 4, 1-Methylamino-1-[4-[3-(piperidinomethyl)phenoxy]but-2-enyl] amino-2-nitro-ethylen]
